The record followed here is PMC9030166, “Natural Phaeosphaeride A Derivatives Overcome Drug Resistance of Tumor Cells and Modulate Signaling Pathways” (Pharmaceuticals, 2022).

As a reminder, the IC50 is the concentration that gives 50% inhibition. Low values mean greater potency, high ones weaker potency.

One assay deals with Akt (pSer473). As to the kind of experiment: MILLIPLEX MAP 9-Plex, Akt active form in A431 lysates. The format is cell-based, human. The conditions noted are these: A431 cell lysates, 10 μM, 1 h, M ± mx; control 76.4 ± 16.9. The source says:
(§1) We used the MILLIPLEX MAP Multi-Pathway Magnetic Bead 9-Plex-Cell Signaling Multiplex Assay, which allows the simultaneous detection of nine phosphorylated proteins that are markers of the main intracellular signaling pathways (phosphorylation site is indicated in parentheses), a universal transcription factor that controls the expression of immune response genes; apoptosis and cell cycle NFκB (pS536); cAMP-dependent transcription factor (CREB (pS133); mitogen-activated kinase p38 (pT180/pY182); stress-activated protein kinase JNK (pT183/pY185); ribosomal […]; transcription factors STAT3 (pS727) and STAT5A/B (pY694/699); protein kinase B (Akt) (pS473); and kinase regulated by extracellular signals ERK1/2 (pT185/pY187).
(§2) The effect of various concentrations of PPA derivatives on the cell culture was studied using xCelligence RTCA equipment (AceaBioscience, San Diego, CA, USA). The concentration closest to the IC50 (10 μM) was chosen as the experimental concentration. The selected concentration of phaeosphaeride A derivatives allows for the assessment of the early effect of compounds on cells and compares their effectiveness. In this experiment, the signaling pathways Akt (pSer473), p70S6K (pThr412), NFkB (p65-pSer536), and CREB (pSer133) were not activated (Table 8). The stress-activated signaling pathways ERK/MAP kinase 1/2 (pThr185/pTyr187), JNK (pThr183/pTyr185), and p38 (pThr180/pTyr182) were activated for these compounds.
(§3) We used a MILLIPLEX MAP Multi-Pathway Magnetic Bead 9-Plex-Cell Signaling Multiplex Assay kit (Merck/Millipore), according to the manufacturer’s protocol. A431 cells were cultured in DMEM with 10% FBS in 24-well plates. Compounds were added to the subconfluent cells at a concentration of 10 μM in DMEM medium for 1 h. Each compound was added in 5 experimental repeats. Cell lysates were prepared with lysis buffer (Millipore) with protease inhibitors (Complete, Roche); the protein concentration in the lysates was determined by the Lowry method. In samples equalized in protein concentration, the active forms of kinase cascades were determined using a Bio-Plex 200 fluorescent analyzer (Bio-Rad).

A further assay deals with MCF-7. The assay is described as follows: MTT cytotoxicity, MCF-7 breast cancer cells. It is filed as cell-based. The conditions noted are these: Homo sapiens, MCF7, adhesive tumor culture, 48 h. The source says:
(§4) Cell cultures used in the work: adhesive cultures HBL-100 cells (cells of a normal mammary gland epithelium, immortalized by the SV40 virus and acquired tumorigenicity); MCF-7 breast cancer cells; PC-3 prostate adenocarcinoma cells; HCT-116 colorectal cancer cells; non-small cell lung cancer cells A549; human embryonic kidney cells HEK293; suspension cultures (NCI-H929 and RPMI8226 multiple myeloma cells), K562 chronic myeloid leukemia cells; THP-1 acute monocytic leukemia cells; and Jurkat acute T-cell leukemia cells. We also used several primary cultures of soft tissue sarcomas at 3–4passeges, kindly provided by T.I. Fetisov (The Ethics Committee of N.N. Blokhin NMRCO, protocol code 18-28-09095 and date of approval 28 September 2018).
(§5) Modifications of cell lines: K562/i-S9 is a clone obtained after transfection of K562 cells with the ABCB1 (MDR1) gene-encoding P-glycoprotein [36]. Cells HBL-100/Dox and K562/i-S9_Dox are cells obtained by long-term selection with increasing concentrations of doxorubicin (Sigma-Aldrich, St. Louis, MO, USA) from HBL-100 and K562/i-S9 cells, respectively. MCF-7, A594 cells, and primary cultures of soft tissue sarcomas were cultured in DMEM medium (PanEko, Russia), PC-3 and HCT-116 cells and all suspension cultures in RPMI1640 medium (PanEko, Russia) supplemented with 10% fetal bovine serum (GE Healthcare LifeSciences, USA), and gentamicin at a concentration of 40 μg/mL at 37 °C and 5% CO2.
(§6) Cells MCF-7, PC-3, A549, and HCT-116, and primary cultures of STSwere seeded in 96-well plates, 6 × 10^3 cells per well in 90 μL of culture medium. Suspension cultures were seeded at a concentration of 25 × 10^3 cells per well in 135 μL of medium. The test substances were dissolved in DMSO (Applichem, Council Bluffs, IA, USA) until a concentration of 1 × 10^−^2 M was obtained; for the subsequent dilution of the substances, a serum-free culture medium was used. The next day, for adhesive cultures, and on the same day, for suspension cultures, substances were added to the plates in a volume of 10 μL (adhesive cultures) and 15 μL (suspension cultures) per well at various concentrations; each concentration was added in 3–4 repetitions. The cells were cultured in the presence of substances for 48 h. Then, MTT reagent (PanEko, Moscow, Russia) was added to the wells at a concentration of 5 mg/mL in a volume of 20 μL per well. After 1.5–2 h, the medium with the reagent was removed, and the precipitate of the crystals of formazan was dissolved in 60 μL of DMSO. The optical density was determined using a Multiskan FC spectrophotometer (Thermo Scientific, Waltham, MA, USA) at a wavelength of 540 nm.
(§7) Based on the results of the experiments, a schedule was plotted of the dependence of the percentage of surviving cells (from control) on the concentration of the compound, and the sought concentration IC50 was calculated. The experiments were carried out in 3–4 times.

In assay [1] the test system is ERK 1/2 (pThr185/pTyr187). As to the kind of experiment: MILLIPLEX MAP 9-Plex, ERK 1/2 active form in A431 lysates. It is filed as cell-based, human. The conditions noted are these: 10 μM; for ERK ½ (pThr185/pTyr187) fluorescence intensity: A431 cell lysates, 1 h, M ± mx, control 839.7 ± 248.9; for activation of signaling pathway ERK/MAP kinase 1/2 (pThr185/pTyr187), in words: A431 cells.
From the text: as §1, §2, §3

In a further assay the test system is THP-1. The assay is described as follows: MTT cytotoxicity, THP-1 acute monocytic leukemia cells. It is filed as cell-based. The conditions noted are these: Homo sapiens, suspension culture, 48 h.
From the text: as §4, §5, §6, §7

Another assay deals with RPMI8226. As to the kind of experiment: MTT cytotoxicity, RPMI8226 multiple myeloma cells. The conditions noted are these: Homo sapiens, RPMI-8226, suspension culture, 48 h. It is filed as cell-based.
From the text: as §4, §5, §6, §7

Another assay has as its system HBL-100. The assay is described as follows: MTT cytotoxicity, sensitive HBL-100 cells. The conditions noted are these: Homo sapiens, 48 h. It is filed as cell-based.
From the text: as §4, §6, §7

In assay [2] the test system is CMT № 3 (Epithelial Sarcoma (Metastasis)). The assay is described as follows: MTT cytotoxicity, primary culture of soft tissue sarcoma CMT № 3. It is filed as cell-based. The conditions noted are these: Homo sapiens, 48 h.
From the text: It is believed that such cultures have a molecular profile that corresponds more with cells from the human body, in comparison with that of stable cultures of tumor cells (Table 3).
as §4, §5
as §6, with “Then, MTT reagent (PanEko, Moscow, Russia) was added to the wells at a concentration of 5 mg/mL in a volume of 20 μL per well. After 1.5–2 h, the medium with the reagent was removed, and the precipitate of the crystals of formazan was dissolved in 60 μL of DMSO.” left out
Based on the results of the experiments, a schedule was plotted of the dependence of the percentage of surviving cells (from control) on the concentration of the compound, and the sought concentration IC50 was calculated. […]

Each structure is given as a SMILES string.

Consider `C=C1C2=C(C(=O)N1OC)[C@@H](N1CCCC1)[C@@](C)(O)[C@H](CCCCC)O2` [Compound 1], for which, in the assay with Akt (pSer473), the “Akt (pSer473) fluorescence intensity” value is recorded as 112.6 ± 12.0 rel. units. Moreover, the IC50 with MCF-7 was 3.9 ± 0.8 µM; in the assay with THP-1, 1500 ± 400 nM; with RPMI8226, 1600 ± 300 nM; with HBL-100, 6.2 ± 0.8 µM; in assay [2] it was 4.8 ± 0.9 µM. For the same molecule, the “ERK ½ (pThr185/pTyr187) fluorescence intensity” value in assay [1] is listed as 4650.1 ± 509.0 *↑ rel. units.

Turning to `C=C1C2=C(C(=O)N1OC)[C@@H](N(C)C)[C@@](C)(O)[C@H](CCCCC)O2` [Compound 2, (2S,3R,4R)-4-(dimethylamino)-3-hydroxy-6-methoxy-3-methyl-7-methylene-2-pentyl-3,4,6,7-tetrahydropyrano[2,3-c]pyrrol-5(2H)-one], in the assay with Akt (pSer473), the “Akt (pSer473) fluorescence intensity” value is 132.4 ± 17.9 rel. units. For the same molecule, the IC50 was 3 ± 0.8 µM in the assay on MCF-7; 900 ± 300 nM in the assay with THP-1; 1600 ± 500 nM with RPMI8226; 4.9 ± 1 µM in the assay on HBL-100; 7.8 ± 0.6 µM in assay [2]. Further, the “ERK ½ (pThr185/pTyr187) fluorescence intensity” value in assay [1] is given as 5074.6 ± 770.1 *↑ rel. units. In addition, the “activation of signaling pathway ERK/MAP kinase 1/2 (pThr185/pTyr187), in words” value (from here on “activation … (pThr185/pTyr187), in words”) in assay [1] is “maximum degree of activation”.

As for `C=C1C2=C(C(=O)N1OC)[C@@H](N(CCCC)CCCC)[C@@](C)(O)[C@H](CCCCC)O2` [Compound 5, (2S,3R,4R)-4-(dibutylamino)-3-hydroxy-6-methoxy-3-methyl-7-methylene-2-pentyl-3,4,6,7-tetrahydropyrano[2,3-c]pyrrol-5(2H)-one], in the assay on Akt (pSer473), the “Akt (pSer473) fluorescence intensity” value is recorded as 100.9 ± 11.7 rel. units. Also, the IC50 in the assay on MCF-7 came out at 7.4 ± 0.5 µM; with THP-1, 8200 ± 600 nM; in the assay on RPMI8226 it was 6300 ± 300 nM. For the same molecule, the “ERK ½ (pThr185/pTyr187) fluorescence intensity” value in assay [1] is on record as 1880.4 ± 81.7 *↑ rel. units. Besides, the “activation … (pThr185/pTyr187), in words” value in assay [1] is reported as “only slightly activated”.

For the molecule `C=C1C2=C(C(=O)N1OC)[C@@H](N(CC)CCO)[C@@](C)(O)[C@H](CCCCC)O2` [Compound 9, (2S,3R,4R)-4-[ethyl(2-hydroxyethyl)amino]-3-hydroxy-6-methoxy-3-methyl-7-methylene-2-pentyl-3,4,6,7-tetrahydropyrano[2,3-c]pyrrol-5(2H)-one], in the assay on Akt (pSer473), the “Akt (pSer473) fluorescence intensity” value was 88.8 ± 10.7 rel. units. In addition, the IC50 with MCF-7 was 2.9 ± 1 µM; in the assay on THP-1 it was 1700 ± 200 nM; with RPMI8226 it was 1800 ± 200 nM; in the assay with HBL-100, 6.5 ± 0.8 µM; in assay [2], 13 ± 0.9 µM. The “ERK ½ (pThr185/pTyr187) fluorescence intensity” value in assay [1] is on record as 3276.9 ± 700.0 *↑ rel. units.

On to `CCCCC[C@@H]1OC2=C(C(=O)N(OC)/C2=C\n2cnnc2)C(n2cnnc2)[C@@]1(C)O` (stereo partly shown) [Compound 10], for which the “Akt (pSer473) fluorescence intensity” value in the assay on Akt (pSer473) is on record as 142.1 ± 9.5 *↑ rel. units. Besides, the IC50 in the assay on MCF-7 was 49 ± 5.3 µM; in the assay with THP-1, 42000 ± 5200 nM; with RPMI8226, 51000 ± 200 nM. Further, the “ERK ½ (pThr185/pTyr187) fluorescence intensity” value in assay [1] is listed as 1864.9 ± 149.5 *↑ rel. units. Besides, in assay [1], the “activation … (pThr185/pTyr187), in words” value was “only slightly activated”.
